{"source": "patent US20260285850A1", "about": "“SUBSTITUTED OXAZOLIDINONES AND IMIDAZOLINONES AS HERBICIDES” (FMC CORPORATION, priority 2023, published 2026)", "type_in_all_cases": "in vivo", "key": {"kochia (Bassia scoparia) [1]": {"test_system": "kochia (Bassia scoparia)", "experiment": "Test A postemergence application, visual injury rating 0-100", "conditions": "10 days", "how_it_was_run": "(§1)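 Directed preemergence spray onto seeded soil or postemergence spray onto 2-10 cm plants (loam plus sand); compound carried in surfactant-containing non-phytotoxic solvent. Injury rated by eye after 10 d greenhouse growth; 0 = no effect, 100 = complete control.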"}, "[2]": {"test_system": "green foxtail (Setaria viridis)", "experiment": "Test A postemergence application, visual injury rating 0-100", "conditions": "10 days", "how_it_was_run": "as §1"}, "[3]": {"test_system": "ragweed (common ragweed, Ambrosia artemisiifolia)", "experiment": "Test A postemergence application, visual injury rating 0-100", "conditions": "10 days", "how_it_was_run": "as §1"}, "[4]": {"test_system": "palmer (palmer amaranth, palmer pigweed, Amaranthus palmeri)", "experiment": "Test A postemergence application, visual injury rating 0-100", "conditions": "10 days", "how_it_was_run": "as §1"}, "[5]": {"test_system": "horseweed (Erigeron canadensis)", "experiment": "Test A postemergence application, visual injury rating 0-100", "conditions": "10 days", "how_it_was_run": "as §1"}, "[6]": {"test_system": "ryegrass, Italian (italian ryegrass, Lolium multiflorum)", "experiment": "Test A postemergence application, visual injury rating 0-100", "conditions": "10 days", "how_it_was_run": "as §1"}, "[7]": {"test_system": "galium (catchweed bedstraw, Galium aparine)", "experiment": "Test A postemergence application, visual injury rating 0-100", "conditions": "10 days", "how_it_was_run": "as §1"}, "[8]": {"test_system": "wheat (Triticum aestivum)", "experiment": "Test A postemergence application, visual injury rating 0-100", "conditions": "10 days", "how_it_was_run": "as §1"}, "soybean (Glycine max) [9]": {"test_system": "soybean (Glycine max)", "experiment": "Test A postemergence application, visual injury rating 0-100", "conditions": "10 days", "how_it_was_run": "as §1"}, "[10]": {"test_system": "blackgrass (Alopecurus myosuroides)", "experiment": "Test A postemergence application, visual injury rating 0-100", "conditions": "10 days", "how_it_was_run": "as §1"}, "[11]": {"test_system": "barnyardgrass (Echinochloa crus-galli)", "experiment": "Test A postemergence application, visual injury rating 0-100", "conditions": "10 days", "how_it_was_run": "as §1"}, "corn (Zea mays) [12]": {"test_system": "corn (Zea mays)", "experiment": "Test A postemergence application, visual injury rating 0-100", "conditions": "10 days", "how_it_was_run": "as §1"}, "[13]": {"test_system": "oat, wild (wild oat, Avena fatua)", "experiment": "Test A postemergence application, visual injury rating 0-100", "conditions": "10 days", "how_it_was_run": "as §1"}, "kochia (Bassia scoparia) [14]": {"test_system": "kochia (Bassia scoparia)", "experiment": "Test A preemergence soil spray, visual injury rating 0-100", "conditions": "10 days, 0 = no effect, 100 = complete control", "how_it_was_run": "as §1"}, "[15]": {"test_system": "green foxtail (Setaria viridis)", "experiment": "Test A preemergence soil spray, visual injury rating 0-100", "conditions": "10 days, 0 = no effect, 100 = complete control", "how_it_was_run": "as §1"}, "[16]": {"test_system": "ragweed (common ragweed, Ambrosia artemisiifolia)", "experiment": "Test A preemergence soil spray, visual injury rating 0-100", "conditions": "10 days, 0 = no effect, 100 = complete control", "how_it_was_run": "as §1"}, "[17]": {"test_system": "palmer (palmer amaranth, palmer pigweed, Amaranthus palmeri)", "experiment": "Test A preemergence soil spray, visual injury rating 0-100", "conditions": "10 days, 0 = no effect, 100 = complete control", "how_it_was_run": "as §1"}, "[18]": {"test_system": "ryegrass, Italian (italian ryegrass, Lolium multiflorum)", "experiment": "Test A preemergence soil spray, visual injury rating 0-100", "conditions": "10 days, 0 = no effect, 100 = complete control", "how_it_was_run": "as §1"}, "[19]": {"test_system": "wheat (Triticum aestivum)", "experiment": "Test A preemergence soil spray, visual injury rating 0-100", "conditions": "10 days, 0 = no effect, 100 = complete control", "how_it_was_run": "as §1"}, "soybean (Glycine max) [20]": {"test_system": "soybean (Glycine max)", "experiment": "Test A preemergence soil spray, visual injury rating 0-100", "conditions": "10 days, 0 = no effect, 100 = complete control", "how_it_was_run": "as §1"}, "[21]": {"test_system": "blackgrass (Alopecurus myosuroides)", "experiment": "Test A preemergence soil spray, visual injury rating 0-100", "conditions": "10 days, 0 = no effect, 100 = complete control", "how_it_was_run": "as §1"}, "[22]": {"test_system": "barnyardgrass (Echinochloa crus-galli)", "experiment": "Test A preemergence soil spray, visual injury rating 0-100", "conditions": "10 days, 0 = no effect, 100 = complete control", "how_it_was_run": "as §1"}, "corn (Zea mays) [23]": {"test_system": "corn (Zea mays)", "experiment": "Test A preemergence soil spray, visual injury rating 0-100", "conditions": "10 days, 0 = no effect, 100 = complete control", "how_it_was_run": "as §1"}, "[24]": {"test_system": "oat, wild (wild oat, Avena fatua)", "experiment": "Test A preemergence soil spray, visual injury rating 0-100", "conditions": "10 days, 0 = no effect, 100 = complete control", "how_it_was_run": "as §1"}, "[25]": {"test_system": "ducksalad (Heteranthera limosa)", "experiment": "Test B flooded paddy test, visual plant response rating 0-100", "conditions": "250 g ai/ha, Flood, applied to paddy water, evaluated after 13 days", "how_it_was_run": "(§2)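 2-leaf plants; flood 3 cm over soil; compound dosed into paddy water; depth kept constant; greenhouse 13 d; visual scoring vs controls. Dash = no result.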"}, "[26]": {"test_system": "sedge, umbrella (small-flower umbrella sedge, Cyperus difformis)", "experiment": "Test B flooded paddy test, visual plant response rating 0-100", "conditions": "250 g ai/ha, Flood, applied to paddy water, evaluated after 13 days", "how_it_was_run": "as §2"}, "rice (Oryza sativa)": {"test_system": "rice (Oryza sativa)", "experiment": "Test B flooded paddy test, visual plant response rating 0-100", "conditions": "250 g ai/ha, Flood, applied to paddy water, evaluated after 13 days", "how_it_was_run": "as §2"}, "[27]": {"test_system": "barnyardgrass (Echinochloa crusgalli)", "experiment": "Test B flooded paddy test, visual plant response rating 0-100", "conditions": "250 g ai/ha, Flood, applied to paddy water, evaluated after 13 days", "how_it_was_run": "as §2"}, "[28]": {"conditions": "31 g ai/ha, postemergence, 0 = no effect, 100 = complete control"}, "[29]": {"conditions": "Postemergence, 125 g ai/ha, 0 is no effect, 100 is complete control"}}, "data": [{"smiles": "CC1(C(=O)NC2C=CC(C(=O)OC3CCCC3)C2)CN(c2cc(F)cc(F)c2)C(=O)O1", "note": "(stereo not shown) [Compound 57]", "values": [{"measurement": "Kochia plant response rating (0-100)", "setting": "kochia (Bassia scoparia) [1]; [28]", "result": 80}, {"measurement": "Kochia plant response rating (0 to 100 scale)", "setting": "kochia (Bassia scoparia) [1]; [29]", "result": 80}, {"measurement": "Foxtail, Green plant response rating (0-100)", "setting": "[2]; [28]", "result": 30}, {"measurement": "Foxtail, Green plant response rating (0 to 100 scale)", "setting": "[2]; [29]", "result": 90}, {"measurement": "Ragweed plant response rating (0-100)", "setting": "[3]; [28]", "result": 40}, {"measurement": "Ragweed plant response rating (0 to 100 scale)", "setting": "[3]; [29]", "result": 60}, {"measurement": "Amaranth, Palmer plant response rating (0-100)", "setting": "[4]; [28]", "result": 20}, {"measurement": "Amaranth, Palmer / Pigweed, Palmer plant response rating (0 to 100 scale)", "setting": "[4]; [29]", "result": 70}, {"measurement": "Horseweed plant response rating (0-100)", "setting": "[5]; [28]", "result": 0}, {"measurement": "Horseweed plant response rating (0 to 100 scale)", "setting": "[5]; [29]", "result": 60}, {"measurement": "Ryegrass, Italian plant response rating (0-100)", "setting": "[6]; [28]", "result": 90}, {"measurement": "Ryegrass, Italian plant response rating (0 to 100 scale)", "setting": "[6]; [29]", "result": 90}, {"measurement": "Galium plant response rating (0-100)", "setting": "[7]; [28]", "result": 80}, {"measurement": "Galium plant response rating (0 to 100 scale)", "setting": "[7]; [29]", "result": 80}, {"measurement": "Wheat plant response rating (0-100)", "setting": "[8]; [28]", "result": 90}, {"measurement": "Wheat plant response rating (0 to 100 scale)", "setting": "[8]; [29]", "result": 90}, {"measurement": "Soybean plant response rating (0-100)", "setting": "soybean (Glycine max) [9]; [28]", "result": 60}, {"measurement": "Soybean plant response rating (0 to 100 scale)", "setting": "soybean (Glycine max) [9]; [29]", "result": 70}, {"measurement": "Blackgrass plant response rating (0-100)", "setting": "[10]; [28]", "result": 90}, {"measurement": "Blackgrass plant response rating (0 to 100 scale)", "setting": "[10]; [29]", "result": 90}, {"measurement": "Barnyardgrass plant response rating (0-100)", "setting": "[11]; [28]", "result": 100}, {"measurement": "Barnyardgrass plant response rating (0 to 100 scale)", "setting": "[11]; [29]", "result": 100}, {"measurement": "Corn plant response rating (0-100)", "setting": "corn (Zea mays) [12]; [28]", "result": 90}, {"measurement": "Corn plant response rating (0 to 100 scale)", "setting": "corn (Zea mays) [12]; [29]", "result": 100}, {"measurement": "Oat, Wild plant response rating (0-100)", "setting": "[13]; [28]", "result": 90}, {"measurement": "Oat, Wild plant response rating (0 to 100 scale)", "setting": "[13]; [29]", "result": 90}, {"measurement": "Kochia plant response rating (0-100)", "setting": "kochia (Bassia scoparia) [14]; 31 g ai/ha", "result": 0}, {"measurement": "Kochia plant response rating (0 to 100 scale)", "setting": "kochia (Bassia scoparia) [14]; 125 g ai/ha", "result": 90}, {"measurement": "Foxtail, Green plant response rating (0-100)", "setting": "[15]; 31 g ai/ha", "result": 0}, {"measurement": "Foxtail, Green plant response rating (0 to 100 scale)", "setting": "[15]; 125 g ai/ha", "result": 50}, {"measurement": "Ragweed plant response rating (0-100)", "setting": "[16]; 31 g ai/ha", "result": 0}, {"measurement": "Ragweed plant response rating (0 to 100 scale)", "setting": "[16]; 125 g ai/ha", "result": 0}, {"measurement": "Amaranth, Palmer plant response rating (0-100)", "setting": "[17]; 31 g ai/ha", "result": 10}, {"measurement": "Amaranth, Palmer plant response rating (0 to 100 scale)", "setting": "[17]; 125 g ai/ha", "result": 70}, {"measurement": "Ryegrass, Italian plant response rating (0-100)", "setting": "[18]; 31 g ai/ha", "result": 50}, {"measurement": "Ryegrass, Italian plant response rating (0 to 100 scale)", "setting": "[18]; 125 g ai/ha", "result": 100}, {"measurement": "Wheat plant response rating (0-100)", "setting": "[19]; 31 g ai/ha", "result": 90}, {"measurement": "Wheat plant response rating (0 to 100 scale)", "setting": "[19]; 125 g ai/ha", "result": 100}, {"measurement": "Soybean plant response rating (0-100)", "setting": "soybean (Glycine max) [20]; 31 g ai/ha", "result": 50}, {"measurement": "Soybean plant response rating (0 to 100 scale)", "setting": "soybean (Glycine max) [20]; 125 g ai/ha", "result": 80}, {"measurement": "Blackgrass plant response rating (0-100)", "setting": "[21]; 31 g ai/ha", "result": 70}, {"measurement": "Blackgrass plant response rating (0 to 100 scale)", "setting": "[21]; 125 g ai/ha", "result": 90}, {"measurement": "Barnyardgrass plant response rating (0-100)", "setting": "[22]; 31 g ai/ha", "result": 50}, {"measurement": "Barnyardgrass plant response rating (0 to 100 scale)", "setting": "[22]; 125 g ai/ha", "result": 100}, {"measurement": "Corn plant response rating (0-100)", "setting": "corn (Zea mays) [23]; 31 g ai/ha", "result": 10}, {"measurement": "Corn plant response rating (0 to 100 scale)", "setting": "corn (Zea mays) [23]; 125 g ai/ha", "result": 90}, {"measurement": "Oat, Wild plant response rating (0-100)", "setting": "[24]; 31 g ai/ha", "result": 90}, {"measurement": "Oat, Wild plant response rating (0 to 100 scale)", "setting": "[24]; 125 g ai/ha", "result": 90}, {"measurement": "Plant response rating, Ducksalad (0 to 100 scale, 0 is no effect and 100 is complete control)", "setting": "[25]", "result": 100}, {"measurement": "Plant response rating, Sedge, Umbrella (0 to 100 scale, 0 is no effect and 100 is complete control)", "setting": "[26]", "result": 55}, {"measurement": "Plant response rating, Rice (0 to 100 scale, 0 is no effect and 100 is complete control)", "setting": "rice (Oryza sativa)", "result": 20}, {"measurement": "Plant response rating, Barnyardgrass (0 to 100 scale, 0 is no effect and 100 is complete control)", "setting": "[27]", "result": 90}]}]}
